# Experimental data from patent US11931429B2, “Chemiluminescent probes for diagnostics and in vivo imaging” (RAMOT AT TEL-AVIV UNIVERSITY LTD., priority 2016, dated 2024).
# Entries after “also recorded” stand apart in the source; their conditions may differ.
# How the values were obtained:
# [1] = Light-induced decomposition under normal room illumination, monitored by RP-HPLC; format: physicochemical; conditions: PBS pH 7.4, normal room illumination
# Experimental: Probes (300 μM) were incubated in PBS (100 mM), pH 7.4, at ambient temperature.
# Light-induced decomposition of dioxetane-dye conjugates. While working on the synthesis of the dioxetane-fluorophore conjugates, we encountered an unexpected phenomenon. Although Probe 1 seemed to be photostable, Probes 2 and 3 appeared to decompose under normal room illumination conditions. We measured the photostability of the probes in aqueous solution (PBS, pH 7.4) under normal room illumination. The light-induced decomposition was monitored over several hours by a RP-HPLC assay (FIG. 2).
# β-galactosidase [2] = system: β-galactosidase
# Experimental: Spectra were recorded in PBS (100 mM), pH 7.4, in the presence of 1.5 units/mL β-galactosidase (continuous lines). Dotted line is the fluorescence emission spectrum (DCL—direct chemiluminescence).
# Fluorescence and chemiluminescence were recorded on Molecular Devices Spectramax i3x.
# Chemiluminescence parameters measured for Probes 1, 2 and 3 and their ability to detect and image β-galactosidase. Next, we measured the light emission of the probes, as a function of time, in the presence and in the absence of β-galactosidase.
# The chemiluminescence quantum yield (ϕCL) of probes 2 and 3 was calculated using that of Probe 1 as a known standard (Edwards et al., 1994).
# β-galactosidase [3] = conditions: Probe 1, known standard (Edwards et al., 1994); cited from earlier work
smiles,measurement,setting,value
"COC1(c2cccc(O[C@@H]3OC(CO)[C@H](O)[C@H](O)C3O)c2Cl)OOC12C1CC3CC(C1)CC2C3 (stereo partly shown) [Probe 1, reference compound]",photostability under normal room illumination,[1],photostable; also recorded: unaffected by light
same,λmax [nm] (chemiluminescence emission),"β-galactosidase [2]; 1 μM, PBS (100 mM) pH 7.4, 1.5 units/mL β-galactosidase",470 nm
same,Relative ΦCL,β-galactosidase [2]; relative to Probe 1,1
same,ΦCL (chemiluminescence quantum yield),β-galactosidase [3],3.3 × 10^−5
